# Assays:
# Test in all cases: relative viability (nuclei count vs DMSO), 5 days (fraction); higher = more cells survive
# [1] = system: NCI-H1651
# Summary of the method: (§1)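 Nuclei were stained with Hoechst during a one-step fixation (final 0.05% Triton X-100, 1% formaldehyde, 1 ug/ml Hoechst) carried out 5 days after dosing, then counted on 4× images. The cells, lung cancer lines in 1536-well plates, had been dosed by pin tool the day after seeding with one drug alone or a fixed anchor-drug dose plus five library-drug doses (not always all listed) in √10 steps. Relative viability is the nuclei count in treated wells divided by that in vehicle wells, and each value is the median of duplicate plates.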
# [2] = system: LC-2-ad
# Summary of the method: as §1
# [3] = system: NCI-H1734
# Summary of the method: as §1
# [4] = system: EPLC-272H
# Summary of the method: as §1
# [5] = system: ChaGo-K-1
# Summary of the method: as §1
# [6] = system: NCI-H2170
# Summary of the method: as §1
# [7] = system: LU99A
# Summary of the method: as §1
# [8] = system: NCI-H2405
# Summary of the method: as §1
# [9] = system: NCI-H1395
# Summary of the method: as §1
# [10] = system: NCI-H1793
# Summary of the method: as §1
# [11] = system: ABC-1
# Summary of the method: as §1
# [12] = system: NCI-H460
# Summary of the method: as §1
# [13] = system: PC-3 [JPC-3]
# Summary of the method: as §1
# [14] = system: NCI-H3122
# Summary of the method: as §1
# [15] = system: NCI-H2087
# Summary of the method: as §1
# [16] = system: NCI-H1944
# Summary of the method: as §1
# [17] = system: LOU-NH91
# Summary of the method: as §1
# [18] = system: HCC-78
# Summary of the method: as §1
# [19] = system: RERF-LC-KJ
# Summary of the method: as §1
# [20] = system: NCI-H1755
# Summary of the method: as §1
# [21] = system: UMC-11
# Summary of the method: as §1
# [22] = system: HCC-366
# Summary of the method: as §1
compound,measurement,setting,value
COc1cc(N2CCC(C(N)=O)CC2)ccc1Nc1nc(N)c(Cl)c(Nc2ccccc2S(=O)(=O)C(C)C)n1 [HG-5-88-01] + Nc1ncn([C@H]2C[C@H](O)[C@@H](CO)O2)c(=O)n1 [Decitabine] (partner 2 µM),relative viability,[1]; first compound 0.04 µM,0.536
same,relative viability,[1]; first compound 0.1265 µM,0.635
same,relative viability,[1]; first compound 0.4 µM,0.717
same,relative viability,[1]; first compound 1.265 µM,0.581
same,relative viability,[1]; first compound 4 µM,0.714
same,relative viability,[2]; first compound 0.04 µM,0.782
same,relative viability,[2]; first compound 0.1265 µM,0.719
same,relative viability,[2]; first compound 0.4 µM,0.771
same,relative viability,[2]; first compound 1.265 µM,0.814
same,relative viability,[2]; first compound 4 µM,0.855
same,relative viability,[3]; first compound 0.04 µM,0.526
same,relative viability,[3]; first compound 0.1265 µM,0.564
same,relative viability,[3]; first compound 0.4 µM,0.511
same,relative viability,[3]; first compound 1.265 µM,0.462
same,relative viability,[3]; first compound 4 µM,0.532
same,relative viability,[4]; first compound 0.04 µM,0.32
same,relative viability,[4]; first compound 0.1265 µM,0.371
same,relative viability,[4]; first compound 0.4 µM,0.47
same,relative viability,[4]; first compound 1.265 µM,0.266
same,relative viability,[4]; first compound 4 µM,0.117
same,relative viability,[5]; first compound 0.04 µM,0.524
same,relative viability,[5]; first compound 0.1265 µM,0.515
same,relative viability,[5]; first compound 0.4 µM,0.51
same,relative viability,[5]; first compound 1.265 µM,0.542
same,relative viability,[5]; first compound 4 µM,0.552
same,relative viability,[6]; first compound 0.04 µM,0.461
same,relative viability,[6]; first compound 0.1265 µM,0.479
same,relative viability,[6]; first compound 0.4 µM,0.509
same,relative viability,[6]; first compound 1.265 µM,0.439
same,relative viability,[6]; first compound 4 µM,0.486
same,relative viability,[7]; first compound 0.04 µM,0.896
same,relative viability,[7]; first compound 0.1265 µM,0.929
same,relative viability,[7]; first compound 0.4 µM,0.915
same,relative viability,[7]; first compound 1.265 µM,0.93
same,relative viability,[7]; first compound 4 µM,0.839
same,relative viability,[8]; first compound 0.04 µM,0.67
same,relative viability,[8]; first compound 0.1265 µM,0.754
same,relative viability,[8]; first compound 0.4 µM,0.783
same,relative viability,[8]; first compound 1.265 µM,0.624
same,relative viability,[8]; first compound 4 µM,0.672
same,relative viability,[9]; first compound 0.04 µM,0.765
same,relative viability,[9]; first compound 0.1265 µM,0.712
same,relative viability,[9]; first compound 0.4 µM,0.789
same,relative viability,[9]; first compound 1.265 µM,0.682
same,relative viability,[9]; first compound 4 µM,0.751
same,relative viability,[10]; first compound 0.04 µM,0.554
same,relative viability,[10]; first compound 0.1265 µM,0.518
same,relative viability,[10]; first compound 0.4 µM,0.701
same,relative viability,[10]; first compound 1.265 µM,0.408
same,relative viability,[10]; first compound 4 µM,0.499
same,relative viability,[11]; first compound 0.04 µM,0.998
same,relative viability,[11]; first compound 0.1265 µM,1.09
same,relative viability,[11]; first compound 0.4 µM,1.1
same,relative viability,[11]; first compound 1.265 µM,0.884
same,relative viability,[11]; first compound 4 µM,0.946
same,relative viability,[12]; first compound 0.04 µM,0.478
same,relative viability,[12]; first compound 0.1265 µM,0.493
same,relative viability,[12]; first compound 0.4 µM,0.494
same,relative viability,[12]; first compound 1.265 µM,0.578
same,relative viability,[12]; first compound 4 µM,0.419
same,relative viability,[13]; first compound 0.04 µM,0.762
same,relative viability,[13]; first compound 0.1265 µM,0.826
same,relative viability,[13]; first compound 0.4 µM,0.872
same,relative viability,[13]; first compound 1.265 µM,0.546
same,relative viability,[13]; first compound 4 µM,0.423
same,relative viability,[14]; first compound 0.04 µM,0.365
same,relative viability,[14]; first compound 0.1265 µM,0.279
same,relative viability,[14]; first compound 0.4 µM,0.223
same,relative viability,[14]; first compound 1.265 µM,0.127
same,relative viability,[14]; first compound 4 µM,0.0935
same,relative viability,[15]; first compound 0.04 µM,0.315
same,relative viability,[15]; first compound 0.1265 µM,0.365
same,relative viability,[15]; first compound 0.4 µM,0.325
same,relative viability,[15]; first compound 1.265 µM,0.246
same,relative viability,[15]; first compound 4 µM,0.242
same,relative viability,[16]; first compound 0.04 µM,0.398
same,relative viability,[16]; first compound 0.1265 µM,0.417
same,relative viability,[16]; first compound 0.4 µM,0.554
same,relative viability,[16]; first compound 1.265 µM,0.457
same,relative viability,[16]; first compound 4 µM,0.514
same,relative viability,[17]; first compound 0.04 µM,0.796
same,relative viability,[17]; first compound 0.1265 µM,0.844
same,relative viability,[17]; first compound 0.4 µM,0.725
same,relative viability,[17]; first compound 1.265 µM,0.587
same,relative viability,[17]; first compound 4 µM,0.6
same,relative viability,[18]; first compound 0.04 µM,0.696
same,relative viability,[18]; first compound 0.1265 µM,0.598
same,relative viability,[18]; first compound 0.4 µM,0.62
same,relative viability,[18]; first compound 1.265 µM,0.411
same,relative viability,[18]; first compound 4 µM,0.432
same,relative viability,[19]; first compound 0.04 µM,0.736
same,relative viability,[19]; first compound 0.1265 µM,0.737
same,relative viability,[19]; first compound 0.4 µM,0.7
same,relative viability,[19]; first compound 1.265 µM,0.781
same,relative viability,[19]; first compound 4 µM,0.528
same,relative viability,[20]; first compound 0.04 µM,0.739
same,relative viability,[20]; first compound 0.1265 µM,0.732
same,relative viability,[20]; first compound 0.4 µM,0.829
same,relative viability,[20]; first compound 1.265 µM,0.688
same,relative viability,[20]; first compound 4 µM,0.836
same,relative viability,[21]; first compound 0.04 µM,0.638
same,relative viability,[21]; first compound 0.1265 µM,0.706
same,relative viability,[21]; first compound 0.4 µM,0.604
same,relative viability,[21]; first compound 1.265 µM,0.526
same,relative viability,[21]; first compound 4 µM,0.672
same,relative viability,[22]; first compound 0.04 µM,0.367
same,relative viability,[22]; first compound 0.1265 µM,0.357
same,relative viability,[22]; first compound 0.4 µM,0.436
same,relative viability,[22]; first compound 1.265 µM,0.338
same,relative viability,[22]; first compound 4 µM,0.343

# Reference: the supplement of paper PMC10307832
